The text below walks through data of PMC12081905, “Ortho-functionalization of a ^211At-labeled aryl compound provides stabilization of the C-At bond against oxidative dehalogenation” (Scientific Reports, 2025).

The subject of series [1] is human liver microsomes (CYP450). The experiment in a line: Stability assay in human liver microsomal medium with NADPH regeneration system. The series is classed as in vitro ADME. To be noted: 37 °C, radio-HPLC. The source says: (§1) Since oxidation by CYP450 enzymes is a plausible cause of oxidative deastatination within targeted cells or in the liver, we also assessed the stability of our compounds against liver microsomes. Liver microsomes contain CYP450, a family of oxidase enzymes that were used in our assay, adapted from Schmitt et al.[14] and using a nicotinamide adenine dinucleotide phosphate (NADPH) redox regeneration system to regenerate the redox properties of CYP450. For comparison, we performed the stability assay in rat and human liver microsomes (Fig. 7).
(§2) ^211At was produced at the Arronax cyclotron facility using the ^209Bi(α,2n) ^211At reaction and recovered from the irradiated target in chloroform using a dry distillation protocol adapted from the procedure previously reported by Lindegren et al.[26] […] To quantify free astatine that remains trapped in the HPLC system during the elution, 50 µL of an aqueous sodium sulfite solution (10 mg mL^−1) were injected after each analysis to release free astatine from the HPLC system with the flow rate set at 1.20 mL/min with the following gradient: t = 0: 90% A, 10% B; t = 2–6 min: 100% B with A = H2O with 0.05% TFA and B = CH3CN with 0.05% TFA. The non-radioactive iodinated compounds were analyzed using this HPLC system and their retention times were used as references for identification of their astatinated analogues. […]

Series [2] in a line: Stability assay in oxidizing/acidic medium (chemical oxidation assay, KMnO4). Type of series: physicochemical. To be noted: radio-HPLC. On the procedure: Stability of ^211At-labeled compounds in oxidizing media. […] Adapted from Teze et al.[10], it consists in an incubation of the ^211At-labeled product in 50 mM acetate buffer (pH = 4.7) containing a 1 mM potassium permanganate solution (Fig. 5).
as §2, with “al.[26] Before use, the ^211At solution was reduced to dryness under a gentle stream of nitrogen.” for “al.[26]”
Each peak is then integrated, providing each peak area (noted A(A), A(B) etc…) to quantify the species present. […]

Series [3] concerns rat liver microsomes (CYP450). Kind of series: Stability assay in rat liver microsomal medium with NADPH regeneration system. Type of series: in vitro ADME. To be noted: 37 °C, radio-HPLC.
Text: as §1, §2
(Liver microsomes are a subcellular fraction often used to study metabolism.)

On the set-up of series [4]: method as in PMID 28566709. To be noted: DFT, resulting oxidized compounds; cited from earlier work.

For `CCNC(=O)c1cccc([211At])c1` [[^211At]AEB, 3-[^211At]astato-N-ethylbenzamide], in series [1], the “starting compound / metabolites after 20 h incubation in human microsomes” value was “practically no presence of the starting compound”. In series [2] (50 mM acetate buffer pH 4.7, 1 mM KMnO4, up to 20 h), the “fate of the starting 211At-compound in oxidizing medium” value is “almost complete degradation”. For the same molecule, the “starting compound / metabolites after 20 h incubation in rat microsomes” value in series [3] is “practically no presence of the starting compound”.

With `CCOC(=O)c1cccc([211At])c1` [compound 1, ethyl 3-[^211At]astatobenzoate], the “bond dissociation energy of the carbon-halogen bond” value in series [4] was 28.2 kcal mol^−1.

For the molecule `OCc1ccccc1[211At]` [compound 2, (2-[^211At]astatophenyl)methanol], the “free astatine (release of astatine) after 20 h incubation in oxidizing medium” value in series [2] (50 mM acetate buffer pH 4.7, 1 mM KMnO4, room temperature, 20 h, n = 3) amounted to 12%.
